Results reported in patent US9707233B2, “Heterocyclylamines as PI3K inhibitors” (Incyte Corporation, priority 2011, dated 2017).

These molecules were tested against PI3Kδ (p110δ/p85α) (Homo sapiens (Human), UniProt O00329) (assay: PI3Kδ scintillation proximity assay (Example A3)). Settings: 20 μM ATP, 20 μM PIP2, 4 nM PI3Kδ; read-out: PI3Kδ SPA IC50.
PI3Kδ (p110δ/p85α), sequence (O00329 whole entry): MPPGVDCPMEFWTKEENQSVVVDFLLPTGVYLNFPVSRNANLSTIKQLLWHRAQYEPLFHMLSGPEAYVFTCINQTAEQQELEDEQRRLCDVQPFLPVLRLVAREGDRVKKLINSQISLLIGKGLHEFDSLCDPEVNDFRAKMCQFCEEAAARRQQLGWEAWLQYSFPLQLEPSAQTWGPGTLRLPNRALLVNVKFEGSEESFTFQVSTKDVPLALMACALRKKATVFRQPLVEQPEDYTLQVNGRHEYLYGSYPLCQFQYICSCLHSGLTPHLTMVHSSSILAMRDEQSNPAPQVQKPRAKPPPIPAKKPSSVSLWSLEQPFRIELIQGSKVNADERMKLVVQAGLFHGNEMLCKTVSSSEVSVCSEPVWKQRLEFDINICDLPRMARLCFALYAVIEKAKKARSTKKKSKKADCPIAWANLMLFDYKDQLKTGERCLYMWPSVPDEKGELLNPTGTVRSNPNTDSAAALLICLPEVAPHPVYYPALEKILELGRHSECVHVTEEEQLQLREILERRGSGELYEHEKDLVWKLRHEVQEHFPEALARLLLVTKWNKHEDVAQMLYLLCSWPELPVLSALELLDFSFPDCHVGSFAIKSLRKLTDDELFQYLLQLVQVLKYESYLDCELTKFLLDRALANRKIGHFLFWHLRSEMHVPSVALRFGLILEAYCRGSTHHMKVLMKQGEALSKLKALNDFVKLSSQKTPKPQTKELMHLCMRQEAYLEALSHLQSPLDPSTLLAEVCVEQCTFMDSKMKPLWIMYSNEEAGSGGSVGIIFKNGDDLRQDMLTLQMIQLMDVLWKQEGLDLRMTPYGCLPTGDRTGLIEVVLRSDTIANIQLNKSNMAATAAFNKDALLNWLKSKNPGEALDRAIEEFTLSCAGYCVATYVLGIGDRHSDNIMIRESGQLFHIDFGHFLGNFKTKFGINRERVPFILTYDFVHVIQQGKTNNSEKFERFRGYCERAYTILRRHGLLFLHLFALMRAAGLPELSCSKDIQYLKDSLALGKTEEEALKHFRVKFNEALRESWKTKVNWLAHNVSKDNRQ
PI3Kδ (p110δ/p85α), sequence (P27986 whole entry partner): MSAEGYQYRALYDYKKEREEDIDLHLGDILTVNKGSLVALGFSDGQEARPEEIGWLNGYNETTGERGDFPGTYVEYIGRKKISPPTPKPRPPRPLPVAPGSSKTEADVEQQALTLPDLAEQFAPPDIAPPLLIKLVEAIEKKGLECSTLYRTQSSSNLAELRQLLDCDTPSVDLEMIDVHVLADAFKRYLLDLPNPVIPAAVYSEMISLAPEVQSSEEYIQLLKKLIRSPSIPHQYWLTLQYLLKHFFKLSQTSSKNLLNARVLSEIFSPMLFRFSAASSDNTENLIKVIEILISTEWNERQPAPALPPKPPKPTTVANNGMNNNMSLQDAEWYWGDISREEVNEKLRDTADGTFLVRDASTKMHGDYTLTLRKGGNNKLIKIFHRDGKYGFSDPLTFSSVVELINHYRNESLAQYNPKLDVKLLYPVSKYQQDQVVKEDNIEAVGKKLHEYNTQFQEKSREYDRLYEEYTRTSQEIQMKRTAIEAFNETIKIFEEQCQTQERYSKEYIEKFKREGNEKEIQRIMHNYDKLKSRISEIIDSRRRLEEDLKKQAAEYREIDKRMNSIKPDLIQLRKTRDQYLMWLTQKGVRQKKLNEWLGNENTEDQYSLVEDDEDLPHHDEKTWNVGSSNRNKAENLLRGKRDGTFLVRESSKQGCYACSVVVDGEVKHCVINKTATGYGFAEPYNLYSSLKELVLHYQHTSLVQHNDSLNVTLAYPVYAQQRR
Format: biochemical
Procedure: [γ-^33P]ATP (10 mCi/mL) was purchased from Perkin-Elmer (Waltham, Mass.). […] PI3Kδ (p110δ/p85α) was purchased from Millipore (Bedford, Mass.). ATP, MgCl2, DTT, EDTA, MOPS and CHAPS were purchased from Sigma-Aldrich (St. Louis, Mo.). Wheat Germ Agglutinin (WGA) YSi SPA Scintillation Beads was purchased from GE healthcare life sciences (Piscataway, N.J.).
The kinase reaction was conducted in polystyrene 384-well matrix white plate from Thermo Fisher Scientific in a final volume of 25 μL. Inhibitors were first diluted serially in DMSO and added to the plate wells before the addition of other reaction components. The final concentration of DMSO in the assay was 0.5%. The PI3K assays were carried out at room temperature in 20 mM MOPS, pH 6.7, 10 mM MgCl2, 5 mM DTT and CHAPS 0.03%. Reactions were initiated by the addition of ATP, the final reaction mixture consisted of 20 μM PIP2, 20 μM ATP, 0.2 μCi [γ-^33P]ATP, 4 nM PI3Kδ. […] 25 mM EDTA, 400 μM ATP. The final concentration of SPA beads was 1.0 mg/mL. After the plate sealing, plates were shaken overnight at room temperature and centrifuged at 1800 rpm for 10 minutes, the radioactivity of the product was determined by scintillation counting on Topcount (Perkin-Elmer). IC50 determination was performed by fitting the curve of percent control activity versus the log of the inhibitor concentration using the GraphPad Prism 3.0 software.
With “2-(4-(3-(1-(4-Amino-3-methyl-1H-pyrazolo[3,4-d]pyrimidin-1-yl)ethyl)-5-chloro-2-ethoxy-6-methylphenyl)-1H-pyrazol-1-yl) acetamide [Example 203]” the IC50 was ≤ 10 nM. For `COc1c(C(C)n2nc(C)c3c(N)ncnc32)cc(Cl)c(C)c1C1CN(CC2CC2)C1` (racemic) [Example 4, 1-(1-{5-Chloro-3-[1-(cyclopropylmethyl)azetidin-3-yl]-2-methoxy-4-methylphenyl}ethyl)-3-methyl-1H-pyrazolo[3,4-d]pyrimidin-4-amine bis(trifluoroacetate)], the IC50 was ≤ 10 nM. For `COc1c(C(C)n2nc(C)c3c(N)ncnc32)cc(Cl)c(C)c1-c1ccnc(C(=O)N(C)CCO)c1` (racemic) [Example 19, 4-{3-[1-(4-amino-3-methyl-1H-pyrazolo[3,4-d]pyrimidin-1-yl)ethyl]-5-chloro-2-methoxy-6-methylphenyl}-N-(2-hydroxyethyl)-N-methylpyridine-2-carboxamide], the IC50 was ≤ 10 nM. For `COc1c(C(C)n2ccc(=O)c3c(N)ncnc32)cc(Cl)c(C)c1-c1cncc(S(C)(=O)=O)c1` (racemic) [Example 26, 4-Amino-8-(1-{5-chloro-2-methoxy-4-methyl-3-[5-(methylsulfonyl)pyridin-3-yl]phenyl}ethyl)pyrido[2,3-d]pyrimidin-5(8H)-one bis(trifluoroacetate)], the IC50 was ≤ 10 nM. In the case of `COc1c(C(C)n2ccc(=O)c3c(N)ncnc32)cc(Cl)c(C)c1-c1cncc(C#N)c1` (racemic) [Example 27, 5-{3-[1-(4-Amino-5-oxopyrido[2,3-d]pyrimidin-8(5H)-yl)ethyl]-5-chloro-2-methoxy-6-methylphenyl}nicotinonitrile bis(trifluoroacetate)], the IC50 is reported as ≤ 10 nM. With `COc1c(C(C)n2ccc(=O)c3c(N)ncnc32)cc(Cl)c(C)c1-c1cncnc1` (racemic) [Example 29, 4-Amino-8-[1-(5-chloro-2-methoxy-4-methyl-3-pyrimidin-5-ylphenyl)ethyl]pyrido[2,3-d]pyrimidin-5(8H)-one bis(trifluoroacetate)] the IC50 was ≤ 10 nM. In the case of `COc1c(C(C)n2ccc(=O)c3c(N)ncnc32)cc(Cl)c(C)c1-c1cccc(C(=O)N(C)C)c1` (racemic) [Example 30, 3′-[1-(4-Amino-5-oxopyrido[2,3-d]pyrimidin-8(5H)-yl)ethyl]-5′-chloro-2′-methoxy-N,N,6′-trimethylbiphenyl-3-carboxamide bis(trifluoroacetate)], the IC50 is reported as ≤ 10 nM. For `COc1c(C(C)n2ccc(=O)c3c(N)ncnc32)cc(Cl)c(C)c1-c1cncc(F)c1` (racemic) [Example 31, 4-Amino-8-{1-[5-chloro-3-(5-fluoropyridin-3-yl)-2-methoxy-4-methylphenyl]ethyl}pyrido[2,3-d]pyrimidin-5(8H)-one bis(trifluoroacetate)], the IC50 was ≤ 10 nM. `COc1c(C(C)n2ccc(=O)c3c(N)ncnc32)cc(Cl)c(C)c1-c1cccc(S(=O)(=O)N(C)C)c1` (racemic) [Example 32, 3′-[1-(4-Amino-5-oxopyrido[2,3-d]pyrimidin-8(5H)-yl)ethyl]-5′-chloro-2′-methoxy-N,N,6′-trimethylbiphenyl-3-sulfonamide bis(trifluoroacetate)] was tested, and the IC50 was ≤ 10 nM. In the case of `CNC(=O)c1ccc(-c2c(C)c(Cl)cc(C(C)n3ccc(=O)c4c(N)ncnc43)c2OC)cn1` (racemic) [Example 33, 5-{3-[1-(4-amino-5-oxopyrido[2,3-d]pyrimidin-8(5H)-yl)ethyl]-5-chloro-2-methoxy-6-methylphenyl}-N-methylpyridine-2-carboxamide bis(trifluoroacetate)], the IC50 is reported as ≤ 10 nM. `CCOc1c(C(C)n2ccc(=O)c3c(N)ncnc32)cc(Cl)c(C)c1C1CN(C(C)C)C1` (racemic) [Example 35, 4-Amino-8-{1-[5-chloro-2-ethoxy-3-(1-isopropylazetidin-3-yl)-4-methylphenyl]ethyl}pyrido[2,3-d]pyrimidin-5(8H)-one bis(trifluoroacetate)] was tested, and the IC50 was ≤ 10 nM.
